Assays:
[1] = test system: P388/ADR (adriamycine resistance cell line) murine leukemia; assay: MDR in vivo test: reversal of adriamycine resistance in P388/ADR murine leukemia, survival; design: species or system mice; details: for MST %: control = 100%
Protocol: Male B6D2F1 mice (18-21 g) were injected intraperitoneally with 1×10^5 P388/ADR cells at day 0. Daily intraperitoneal treatment with adriamycine, a test compound of formula (I) or a combination of both was installed from day 1 until day 10. Control animals received the vehicle (15% 4-OH-propyl-β-cyclodextrine in saline). Each group consisted of 8 animals. Adriamycine was dosed at a concentration of 1.25 mg/kg body weight, half the maximal tolerable dose of adriamycine in this treatment schedule. The test compound was dosed at 20, 10, 5, 2.5, 1.25 and 0.63 mg/kg either as single treatment or combined with adriamycine.
Survival of the animals was recorded each day and expressed as a percentage of the median survival in the treated groups compared to the median survival in the control group, the latter to be said to be 100%.
Table C-1 lists the effect of compound 6 and adriamycine on the survival of mice injected with P388/ADR leukemia.
doses of compound 6 and adriamycine are expressed as mg/kg body weight.
column “% Change vs. ADR” give the difference in MST% of the different groups compared to the MST% in the adriamycine-monotherapy group.

in vivo = details: mouse, po, 10 mg/kg
Protocol: The increase in drug bioavailability is defined as an increase in the Area Under the Curve (AUC). AUC is the integrated measure of systemic drug concentrations over time in units of mass-time/volume. The AUC from time zero (the time of dosing) to time infinity (when no drug remains in the body) following the administration of a drug dose is a measure of the exposure of the test subject, i.e. an animal or a human patient, to the drug.
Mice were treated orally (80 mg/kg po) with compound (6) about 10 to 20 minutes prior to oral administration of taxol (10 mg/kg po). The Area Under the Curve (AUC) was measured and compared with the AUC of mice treated only with taxol.

[2] = adriamycine 1.25 mg/kg alone, ip daily day 1-10
[3] = compound 6 0.63 mg/kg combined with adriamycine 1.25 mg/kg
[4] = compound 6 0.63 mg/kg single treatment
[5] = compound 6 1.25 mg/kg combined with adriamycine 1.25 mg/kg
[6] = compound 6 1.25 mg/kg single treatment
[7] = compound 6 2.5 mg/kg combined with adriamycine 1.25 mg/kg
[8] = compound 6 2.5 mg/kg single treatment
[9] = compound 6 5 mg/kg combined with adriamycine 1.25 mg/kg
[10] = compound 6 5 mg/kg single treatment
[11] = compound 6 10 mg/kg combined with adriamycine 1.25 mg/kg
[12] = compound 6 10 mg/kg single treatment
[13] = compound 6 20 mg/kg combined with adriamycine 1.25 mg/kg
[14] = compound 6 20 mg/kg single treatment

SMILES: OC1Cn2ccnc2C(=C2CCN(CCc3ccc(OCc4ccc5ccccc5n4)cc3)CC2)c2ccsc21 (racemic) [Compound 28, (±)-6,10-dihydro-10-[1-[2-[4-(2-quinolinylmethoxy)-phenyl]ethyl]-4-piperidinylidene]-5H-imidazo[1,2-a]-thieno[3,2-d]azepin-6-ol]
- melting point: 242.1 °C

SMILES: COc1cccc2c1C(=O)c1c(O)c3c(c(O)c1C2=O)C[C@@](O)(C(=O)CO)C[C@@H]3O[C@H]1C[C@H](N)[C@H](O)[C@H](C)O1 [Adriamycine, adriamycine, reference compound]
- % Change vs. ADR [1, 2]: 0%
- Survival Days med(min-max) [1, 2]: 13(12-15) Days
- MST % [1, 2]: 118%

SMILES: O=Cc1cnc2n1CCc1ccccc1C2=C1CCN(CCc2ccc(OCc3ccc4ccccc4n3)cc2)CC1 [Compound 4, 6,11-dihydro-11-[1-[2-[4-(2-quinolinylmethoxy)phenyl]ethyl]-4-piperidinylidene]-5H-imidazo[2,1-b][3]benzazepine-3-carboxaldehyde]
- melting point: 193.5 °C

SMILES: COC(=O)c1cnc2n1CCc1ccccc1C2=C1CCN(CCc2ccc(OCc3ccc4ccccc4n3)cc2)CC1 [Compound 6, methyl 6,11-dihydro-11-[1-[2-[4-(2-quinolinylmethoxy)phenyl]ethyl]-4-piperidinylidene]-5H-imidazo[2,1-b][3]-benzazepine-3-carboxylate]
- % Change vs. ADR [1, 3]: 14%
- Survival Days med(min-max) ([1]; compound 6 0.63 mg/kg combined with adriamycine 1.25 mg/kg, ip daily day 1-10): 14.5(14->30) Days
- MST % [1, 3]: 132%
- % Change vs. ADR [1, 4]: −18%
- Survival Days med(min-max) ([1]; compound 6 0.63 mg/kg single treatment, ip daily day 1-10): 11(10-12) Days
- MST % [1, 4]: 100%
- % Change vs. ADR [1, 5]: 18%
- Survival Days med(min-max) ([1]; compound 6 1.25 mg/kg combined with adriamycine 1.25 mg/kg, ip daily day 1-10): 15(14-17) Days
- MST % [1, 5]: 136%
- % Change vs. ADR [1, 6]: −13%
- Survival Days med(min-max) ([1]; compound 6 1.25 mg/kg single treatment, ip daily day 1-10): 11.5(10-16) Days
- MST % [1, 6]: 105%
- % Change vs. ADR [1, 7]: 14%
- Survival Days med(min-max) ([1]; compound 6 2.5 mg/kg combined with adriamycine 1.25 mg/kg, ip daily day 1-10): 14.5(10-20) Days
- MST % [1, 7]: 132%
- % Change vs. ADR [1, 8]: −23%
- Survival Days med(min-max) ([1]; compound 6 2.5 mg/kg single treatment, ip daily day 1-10): 10.5(10-12) Days
- MST % [1, 8]: 95%
- % Change vs. ADR [1, 9]: 14%
- Survival Days med(min-max) ([1]; compound 6 5 mg/kg combined with adriamycine 1.25 mg/kg, ip daily day 1-10): 14.5(11-16) Days
- MST % [1, 9]: 132%
- % Change vs. ADR [1, 10]: −18%
- Survival Days med(min-max) ([1]; compound 6 5 mg/kg single treatment, ip daily day 1-10): 11(10-13) Days
- MST % [1, 10]: 100%
- % Change vs. ADR [1, 11]: 18%
- Survival Days med(min-max) ([1]; compound 6 10 mg/kg combined with adriamycine 1.25 mg/kg, ip daily day 1-10): 15(14-28) Days
- MST % [1, 11]: 136%
- % Change vs. ADR [1, 12]: −23%
- Survival Days med(min-max) ([1]; compound 6 10 mg/kg single treatment, ip daily day 1-10): 10.5(10-13) Days
- MST % [1, 12]: 95%
- % Change vs. ADR [1, 13]: 23%
- Survival Days med(min-max) ([1]; compound 6 20 mg/kg combined with adriamycine 1.25 mg/kg, ip daily day 1-10): 15.5(14-17) Days
- MST % [1, 13]: 141%
- % Change vs. ADR [1, 14]: −18%
- Survival Days med(min-max) ([1]; compound 6 20 mg/kg single treatment, ip daily day 1-10): 11(10-14) Days
- MST % [1, 14]: 100%

SMILES: O=C(O)c1cnc2n1CCc1ccccc1C2=C1CCN(CCc2ccc(OCc3ccc4ccccc4n3)cc2)CC1 [Compound 7, 6,11-dihydro-11-[1-[2-[4-(2-quinolinylmethoxy)phenyl]ethyl]-4-piperidinylidene]-5H-imidazo[2,1-b][3]benzazepine-3-carboxylic acid]
- melting point: 174.2 °C

SMILES: COc1cc(CN2CCC(=C3c4ccccc4CCn4ccnc43)CC2)cc(OC)c1OCc1ccc2ccccc2n1 [Compound 32, 11-[1-[[3,5-dimethoxy-4-(2-quinolinylmethoxy)-phenyl]methyl]-4-piperidinylidene]-6,11-dihydro-5H-imidazo[2,1-b][3]benzazepine]
- melting point: 214.8 °C

SMILES: CC(=O)O[C@H]1C(=O)[C@@]2(C)[C@H]([C@H](OC(=O)c3ccccc3)[C@]3(O)C[C@H](OC(=O)[C@H](O)[C@@H](NC(=O)c4ccccc4)c4ccccc4)C(C)=C1C3(C)C)[C@]1(OC(C)=O)CO[C@@H]1C[C@@H]2O [taxol, paclitaxel]
- AUC (in vivo): 820 ± 110 ng·h/mL
